Results published in the NIST ThermoML archive (doi:10.1016/j.jct.2014.12.011).
Numbers after ± are expanded uncertainties.

Experiment: mn = molality of the nth substance listed, in mol/kg
Details: 100 kPa, Liquid, Alternating current cell with electrodes

CCCCCCCC(=O)[O-].[Na+] [sodium octanoate] + O
electrical conductivity [S/m]
Details	278.15 K	288.15 K	298.15 K	308.15 K	318.15 K	328.15 K
m1 = 0.04715	0.168 ± 0.0017	0.223 ± 0.0023	0.284 ± 0.0029	0.35 ± 0.0036	0.421 ± 0.0043	0.494 ± 0.005
m1 = 0.0899	0.299 ± 0.003	0.398 ± 0.004	0.508 ± 0.0051	0.627 ± 0.0063	0.754 ± 0.0076	0.885 ± 0.0089
m1 = 0.132	0.416 ± 0.0042	0.555 ± 0.0056	0.709 ± 0.0071	0.876 ± 0.0088	1.06 ± 0.011	1.242 ± 0.012
m1 = 0.1699	0.5102 ± 0.0051	0.6723 ± 0.0067	0.856 ± 0.0086	1.06 ± 0.011	1.28 ± 0.013	1.522 ± 0.015
m1 = 0.2149	0.606 ± 0.0061	0.797 ± 0.008	1.02 ± 0.01	1.27 ± 0.013	1.538 ± 0.015	1.845 ± 0.018
m1 = 0.2635	0.6914 ± 0.0069	0.924 ± 0.0093	1.18 ± 0.012	1.47 ± 0.015	1.88 ± 0.019	2.213 ± 0.022
m1 = 0.3059	–	0.976 ± 0.0098	1.29 ± 0.013	1.742 ± 0.017	2.106 ± 0.021	2.49 ± 0.025
m1 = 0.3464	–	1.18 ± 0.012	1.536 ± 0.015	1.913 ± 0.019	2.314 ± 0.023	2.734 ± 0.027
m1 = 0.3898	–	1.29 ± 0.013	1.67 ± 0.017	2.09 ± 0.021	2.526 ± 0.025	2.99 ± 0.03
m1 = 0.4368	1.015 ± 0.01	1.4 ± 0.014	1.811 ± 0.018	2.26 ± 0.023	2.74 ± 0.028	3.25 ± 0.033
m1 = 0.4813	1.09 ± 0.011	1.49 ± 0.015	1.934 ± 0.019	2.42 ± 0.024	2.938 ± 0.029	3.48 ± 0.035
m1 = 0.5288	1.16 ± 0.012	1.58 ± 0.016	2.06 ± 0.021	2.58 ± 0.026	3.138 ± 0.031	3.719 ± 0.037
m1 = 0.5785	1.224 ± 0.012	1.68 ± 0.017	2.19 ± 0.022	2.75 ± 0.028	3.34 ± 0.033	3.96 ± 0.04
m1 = 0.63	1.29 ± 0.013	1.77 ± 0.018	2.317 ± 0.023	2.912 ± 0.029	3.545 ± 0.035	4.205 ± 0.042
m1 = 0.6829	1.35 ± 0.014	1.87 ± 0.019	2.45 ± 0.025	3.08 ± 0.031	3.75 ± 0.037	4.448 ± 0.044
m1 = 0.7337	1.412 ± 0.014	1.96 ± 0.02	2.57 ± 0.026	3.236 ± 0.032	3.94 ± 0.04	4.68 ± 0.047

CCCCCCCCCC(=O)[O-].[Cs+] [cesium decanoate] + O
electrical conductivity [S/m]
Details	278.15 K	288.15 K	298.15 K	308.15 K	318.15 K	328.15 K
m1 = 0.00805	0.0479 ± 0.0007	0.0614 ± 0.0009	0.0757 ± 0.0012	0.091 ± 0.0014	0.107 ± 0.0016	0.123 ± 0.0019
m1 = 0.01759	0.101 ± 0.0011	0.13 ± 0.0015	0.161 ± 0.0018	0.193 ± 0.0022	0.227 ± 0.0026	0.261 ± 0.003
m1 = 0.0274	0.151 ± 0.0016	0.197 ± 0.0021	0.241 ± 0.0025	0.29 ± 0.0031	0.342 ± 0.0036	0.396 ± 0.0042
m1 = 0.03769	0.207 ± 0.0021	0.261 ± 0.0027	0.323 ± 0.0033	0.39 ± 0.004	0.46 ± 0.0047	0.533 ± 0.0055
m1 = 0.04818	0.261 ± 0.0027	0.327 ± 0.0033	0.404 ± 0.0041	0.487 ± 0.005	0.575 ± 0.0059	0.667 ± 0.0068
m1 = 0.06109	0.316 ± 0.0032	0.405 ± 0.0041	0.502 ± 0.0051	0.604 ± 0.0061	0.713 ± 0.0072	0.824 ± 0.0083
m1 = 0.0725	0.3714 ± 0.0037	0.476 ± 0.0048	0.588 ± 0.0059	0.707 ± 0.0071	0.829 ± 0.0084	0.958 ± 0.0097
m1 = 0.08819	0.4405 ± 0.0044	0.564 ± 0.0057	0.696 ± 0.007	0.835 ± 0.0084	0.988 ± 0.0099	1.147 ± 0.011
m1 = 0.1027	0.5001 ± 0.005	0.639 ± 0.0064	0.7914 ± 0.0079	0.954 ± 0.0096	1.121 ± 0.011	1.3 ± 0.013
m1 = 0.1172	0.554 ± 0.0056	0.715 ± 0.0072	0.883 ± 0.0089	1.06 ± 0.011	1.24 ± 0.013	1.44 ± 0.015
m1 = 0.1325	0.6113 ± 0.0061	0.79 ± 0.0079	0.965 ± 0.0097	1.16 ± 0.012	1.36 ± 0.014	1.58 ± 0.016
m1 = 0.153	0.697 ± 0.007	0.875 ± 0.0088	1.07 ± 0.011	1.28 ± 0.013	1.514 ± 0.015	1.76 ± 0.018
m1 = 0.1705	0.7509 ± 0.0075	0.944 ± 0.0095	1.16 ± 0.012	1.39 ± 0.014	1.642 ± 0.016	1.914 ± 0.019
m1 = 0.1873	0.799 ± 0.008	1.009 ± 0.01	1.241 ± 0.012	1.49 ± 0.015	1.77 ± 0.018	2.06 ± 0.021
m1 = 0.2051	0.8512 ± 0.0085	1.08 ± 0.011	1.33 ± 0.013	1.604 ± 0.016	1.9 ± 0.019	2.211 ± 0.022
m1 = 0.2256	0.914 ± 0.0092	1.16 ± 0.012	1.438 ± 0.014	1.735 ± 0.017	2.05 ± 0.021	2.39 ± 0.024
m1 = 0.2463	0.976 ± 0.0098	1.25 ± 0.013	1.542 ± 0.015	1.86 ± 0.019	2.207 ± 0.022	2.57 ± 0.026

CCCCCCCCCC(=O)[O-].[Na+] [sodium decanoate] + O
electrical conductivity [S/m]
Details	278.15 K	288.15 K	298.15 K	308.15 K	318.15 K	328.15 K
m1 = 0.01638	0.0626 ± 0.0007	0.083 ± 0.001	0.106 ± 0.0012	0.131 ± 0.0015	0.157 ± 0.0018	0.184 ± 0.0021
m1 = 0.03189	0.116 ± 0.0012	0.155 ± 0.0016	0.198 ± 0.0021	0.244 ± 0.0025	0.292 ± 0.003	0.344 ± 0.0036
m1 = 0.04823	0.17 ± 0.0017	0.226 ± 0.0023	0.288 ± 0.0029	0.356 ± 0.0036	0.428 ± 0.0044	0.504 ± 0.0051
m1 = 0.06109	0.21 ± 0.0021	0.279 ± 0.0028	0.357 ± 0.0036	0.441 ± 0.0045	0.53 ± 0.0054	0.625 ± 0.0063
m1 = 0.07519	0.2524 ± 0.0025	0.336 ± 0.0034	0.429 ± 0.0043	0.531 ± 0.0054	0.639 ± 0.0064	0.753 ± 0.0076
m1 = 0.09179	0.3003 ± 0.003	0.399 ± 0.004	0.5112 ± 0.0051	0.632 ± 0.0064	0.7605 ± 0.0076	0.896 ± 0.009
m1 = 0.1079	0.344 ± 0.0035	0.459 ± 0.0046	0.584 ± 0.0059	0.719 ± 0.0072	0.865 ± 0.0087	1.021 ± 0.01
m1 = 0.1249	0.388 ± 0.0039	0.5125 ± 0.0051	0.647 ± 0.0065	0.795 ± 0.008	0.958 ± 0.0096	1.135 ± 0.011
m1 = 0.1434	0.429 ± 0.0043	0.559 ± 0.0056	0.705 ± 0.0071	0.869 ± 0.0087	1.05 ± 0.011	1.25 ± 0.013
m1 = 0.1608	0.46 ± 0.0046	0.599 ± 0.006	0.758 ± 0.0076	0.936 ± 0.0094	1.134 ± 0.011	1.35 ± 0.013
m1 = 0.1798	0.489 ± 0.0049	0.6405 ± 0.0064	0.8135 ± 0.0081	1.008 ± 0.01	1.224 ± 0.012	1.46 ± 0.015
m1 = 0.1991	0.519 ± 0.0052	0.6831 ± 0.0068	0.8715 ± 0.0087	1.08 ± 0.011	1.316 ± 0.013	1.57 ± 0.016
m1 = 0.2177	0.547 ± 0.0055	0.724 ± 0.0073	0.927 ± 0.0093	1.15 ± 0.012	1.405 ± 0.014	1.68 ± 0.017
m1 = 0.2366	0.576 ± 0.0058	0.766 ± 0.0077	0.984 ± 0.0099	1.228 ± 0.012	1.5 ± 0.015	1.78 ± 0.018
m1 = 0.2557	0.605 ± 0.0061	0.809 ± 0.0081	1.043 ± 0.01	1.303 ± 0.013	1.59 ± 0.016	1.89 ± 0.019
